In ChEMBL document CHEMBL1129486, “(2S,4S)-2-amino-4-(4,4-diphenylbut-1-yl)- pentane-1,5-dioic acid: a potent and selective antagonist for metabotropic glutamate receptors negatively linked to adenylate cyclase” (J Med Chem, 1996):

Columns and labels:
[1] = Compound was evaluated for its ability to reverse ACPD-induced inhibition of forskolin-stimulated cAMP formation in the human mGluR2 expressing non-neuronal cells.; type: functional
[2] = molecular target: Metabotropic glutamate receptor; assay: Compound was tested for its ability to displace metabotropic glutamate binding to rat brain membranes using [3H]glutamate radioligand.; type: tissue-based, Membrane

| IC50 [1] | IC50 [2] | SMILES |
| --- | --- | --- |
| 171 µM | 55.3 µM | N[C@@H](C[C@@H](CCCC(c1ccccc1)c1ccccc1)C(=O)O)C(=O)O |
|  | 4.2 µM | N[C@@H](CC(CCCC(c1ccccc1)c1ccccc1)C(=O)O)C(=O)O (stereo not given in full) |
| 18.1 µM | 4.1 µM | N[C@@H](C[C@H](CCCC(c1ccccc1)c1ccccc1)C(=O)O)C(=O)O |
